Measurements reported in the supplement of paper PMC11061612.

Columns and labels:
[1] = test system: NCI-H720 (Other Solid Carcinomas); assay: Bliss excess, mean over the matrix (fraction); higher = more synergy
Method in brief: (§1)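 Cell lines grown in DMEM/F12 or RPMI with 10% FBS were plated in 1536-well plates and held 24 hours at 37°C, 5% CO2 before 72 hours of exposure to two-drug dose matrices, with DMSO typically at 0.2%. CellTiter-Glo 2.0 luminescence gave viability, which was converted to inhibition. Vehicle wells were set to 0 and blank wells to 1. Combination Emax is the second-highest inhibition in the matrix, and Bliss excess is the observed combination effect minus the expected EA + EB − EA·EB, where EA and EB are the single-agent effects.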

[2] = test system: LCLC-97TM1 (Non-Small Cell Lung Carcinoma); assay: combination Emax (second highest fraction inhibited in the dose matrix, 72 h); higher = more inhibition; extreme values may be limits of the assay
Method in brief: as §1

KS-1 (Glioblastoma) = assay: as above
Method in brief: as §1

[3] = test system: YAPC (Pancreatic Carcinoma); assay: as above
Method in brief: as §1

NCI-H2722 (Mesothelioma) = assay: as above
Method in brief: as §1

[4] = test system: Detroit562 (Head and Neck Carcinoma); assay: as above
Method in brief: as §1

BPH-1 (Non-Cancerous) = assay: as above
Method in brief: as §1

NCI-H2052 (Mesothelioma) = assay: as above
Method in brief: as §1

GAMG (Glioblastoma) = assay: as above
Method in brief: as §1

MPP-89 (Mesothelioma) = assay: as above
Method in brief: as §1

[5] = test system: FTC-133 (Thyroid Gland Carcinoma); assay: as above
Method in brief: as §1

[6] = test system: NCI-H720 (Other Solid Carcinomas); assay: as above
Method in brief: as §1
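Throughout, for Bliss excess, mean over the matrix: after 72 h of two-drug dosing.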

SMILES | Bliss excess [1] | combination Emax [2] | combination Emax (KS-1 (Glioblastoma)) | combination Emax [3] | combination Emax (NCI-H2722 (Mesothelioma)) | combination Emax [4] | combination Emax (BPH-1 (Non-Cancerous)) | combination Emax (NCI-H2052 (Mesothelioma)) | combination Emax (GAMG (Glioblastoma)) | combination Emax (MPP-89 (Mesothelioma)) | combination Emax [5] | combination Emax [6]
COc1cccc2c1C(=O)c1c(O)c3c(c(O)c1C2=O)C[C@@](O)(C(=O)CO)C[C@@H]3O[C@H]1C[C@H](N)[C@H](O)[C@H](C)O1 [Doxorubicin] + Cc1cc2ncnn2cc1Nc1ncc2c(n1)n(C1CCOCC1)c(=O)n2C [AZD7648] (first compound max 1 µM, 7x7, partner max 10 µM) | 0.0281 | 0.6 | 0.619 | 0.381 | 0.823 | 0.681 | 0.951 | 0.745 | 0.945 | 0.734 | 0.92 | 0.478
COc1cccc(OCCCN)c1-c1cc(Nc2cnc(C#N)cn2)n[nH]1 [Prexasertib] + CCc1c2c(nc3ccc(O)cc13)-c1cc3c(c(=O)n1C2)COC(=O)[C@]3(O)CC [SN-38] (first compound max 1 µM, 7x7, partner max 0.3 µM) | 0.197 | 1 | 0.536 | 0.653 | 0.471 | 1 | 0.972 | 0.853 | 0.993 | 0.897 | 1 | 0.886
C=CCn1c(=O)c2cnc(Nc3ccc(N4CCN(C)CC4)cc3)nc2n1-c1cccc(C(C)(C)O)n1 [AZD1775] + C[C@@H]1COCCN1C2=NC(=NC(=C2)C3(CC3)[S@](=N)(=O)C)C4=C5C=CNC5=NC=C4 [AZD6738] (first compound max 1 µM, partner max 10 µM) | 0.0344 | 0.891 | 0.66 | 0.492 | 0.403 | 0.902 | 0.588 | 0.488 | 0.596 | 0.737 | 0.766 | 0.838
COc1cccc(OCCCN)c1-c1cc(Nc2cnc(C#N)cn2)n[nH]1 [Prexasertib] + C=CCn1c(=O)c2cnc(Nc3ccc(N4CCN(C)CC4)cc3)nc2n1-c1cccc(C(C)(C)O)n1 [AZD1775] (first compound max 1 µM, partner max 1 µM) | 0.107 | 0.951 | 0.581 | 0.669 | 0.308 | 0.949 | 0.809 | 0.699 | 0.951 | 0.826 | 0.858 | 0.692
CN(C)CCCOc1ccc(-c2ccc3ncc4c(c3c2)n(C2CCOCC2)c(=O)n4C)cn1 [AZD0156] + C=CCn1c(=O)c2cnc(Nc3ccc(N4CCN(C)CC4)cc3)nc2n1-c1cccc(C(C)(C)O)n1 [AZD1775] (first compound max 1 µM, partner max 1 µM) | 0.0013 | 0.828 | 0.39 | 0.251 | 0.268 | 0.606 | 0.457 | 0.376 | 0.266 | 0.522 | 0.536 | 0.722
COc1cccc(OCCCN)c1-c1cc(Nc2cnc(C#N)cn2)n[nH]1 [Prexasertib] + C[C@@H]1COCCN1C2=NC(=NC(=C2)C3(CC3)[S@](=N)(=O)C)C4=C5C=CNC5=NC=C4 [AZD6738] (first compound max 1 µM, 7x7, partner max 10 µM) | -0.0325 | 0.941 | 0.581 | 0.555 | 0.304 | 0.918 | 0.356 | 0.537 | 0.874 | 0.724 | 0.861 | 0.697
COc1cccc(OCCCN)c1-c1cc(Nc2cnc(C#N)cn2)n[nH]1 [Prexasertib] + CN(C)CCCOc1ccc(-c2ccc3ncc4c(c3c2)n(C2CCOCC2)c(=O)n4C)cn1 [AZD0156] (first compound max 1 µM, 7x7, partner max 1 µM) | 0.0149 | 0.925 | 0.581 | 0.559 | 0.193 | 0.922 | 0.235 | 0.556 | 0.843 | 0.724 | 0.805 | 0.562
C=CCn1c(=O)c2cnc(Nc3ccc(N4CCN(C)CC4)cc3)nc2n1-c1cccc(C(C)(C)O)n1 [AZD1775] + O=C(c1cc(Cc2n[nH]c(=O)c3ccccc23)ccc1F)N1CCN(C(=O)C2CC2)CC1 [Olaparib] (first compound max 1 µM, partner max 10 µM) | -0.035 | 0.774 | 0.481 | 0.432 | 0.346 | 0.669 | 0.488 | 0.467 | 0.486 | 0.508 | 0.602 | 0.671
C[C@@H]1COCCN1c1cc(C2([S@](C)(=N)=O)CC2)nc(-c2ccnc3[nH]ccc23)n1 [AZD6738] + O=C(c1cc(Cc2n[nH]c(=O)c3ccccc23)ccc1F)N1CCN(C(=O)C2CC2)CC1 [Olaparib] (first compound max 10 µM, 7x7, partner max 10 µM) | -0.0398 | 0.826 | 0.573 | 0.288 | 0.292 | 0.862 | 0.51 | 0.478 | 0.388 | 0.619 | 0.672 | 0.687
CN(C)CCCOc1ccc(-c2ccc3ncc4c(c3c2)n(C2CCOCC2)c(=O)n4C)cn1 [AZD0156] + C[C@@H]1COCCN1C2=NC(=NC(=C2)C3(CC3)[S@](=N)(=O)C)C4=C5C=CNC5=NC=C4 [AZD6738] (first compound max 1 µM, 7x7, partner max 10 µM) | -0.0059 | 0.88 | 0.561 | 0.294 | 0.248 | 0.88 | 0.427 | 0.399 | 0.422 | 0.63 | 0.666 | 0.716
CCN(CCO)CCCOc1ccc2c(Nc3cc(CC(=O)Nc4cccc(F)c4)[nH]n3)ncnc2c1 [AZD2811] + O=C(c1cc(Cc2n[nH]c(=O)c3ccccc23)ccc1F)N1CCN(C(=O)C2CC2)CC1 [Olaparib] (first compound max 1 µM, 7x7, partner max 10 µM) | -0.0312 | 0.319 | 0.363 | 0.147 | 0.204 | 0.702 | 0.566 | 0.184 | 0.399 | 0.189 | 0.223 | 0.561
CCc1c2c(nc3ccc(O)cc13)-c1cc3c(c(=O)n1C2)COC(=O)[C@]3(O)CC [SN-38] + O=C(c1cc(Cc2n[nH]c(=O)c3ccccc23)ccc1F)N1CCN(C(=O)C2CC2)CC1 [Olaparib] (first compound max 0.3 µM, 7x7, partner max 10 µM) | -0.0027 |  | 0.556 | 0.646 | 0.38 |  | 0.963 |  | 0.762 | 0.646 |  | 0.333
COc1cccc(OCCCN)c1-c1cc(Nc2cnc(C#N)cn2)n[nH]1 [Prexasertib] + O=C(c1cc(Cc2n[nH]c(=O)c3ccccc23)ccc1F)N1CCN(C(=O)C2CC2)CC1 [Olaparib] (first compound max 1 µM, 7x7, partner max 10 µM) | 0.0208 | 0.936 | 0.628 | 0.597 | 0.234 | 0.922 | 0.497 | 0.589 | 0.83 | 0.714 | 0.915 | 0.64
CN(C)CCCOc1ccc(-c2ccc3ncc4c(c3c2)n(C2CCOCC2)c(=O)n4C)cn1 [AZD0156] + CCN(CCO)CCCOc1ccc2c(Nc3cc(CC(=O)Nc4cccc(F)c4)[nH]n3)ncnc2c1 [AZD2811] (first compound max 1 µM, 7x7, partner max 1 µM) | 0.0368 | 0.371 | 0.291 | 0.137 | 0.146 | 0.75 | 0.459 | 0.284 | 0.22 | 0.105 | 0.284 | 0.742
Cc1c2c(nn1C)CSCc1cc(n(C)n1)CSc1cc(c3ccccc3c1)OCCCc1c(C(=O)O)n(C)c3c-2c(Cl)ccc13 [AZD5991] + C[C@@H]1COCCN1C2=NC(=NC(=C2)C3(CC3)[S@](=N)(=O)C)C4=C5C=CNC5=NC=C4 [AZD6738] (first compound max 1 µM, 7x7, partner max 10 µM) |  | 0.894 | 0.587 | 0.327 | 0.401 | 0.902 | 0.521 | 0.338 | 0.579 | 0.596 | 0.923 | 
NC1(C(=O)N[C@@H](CCO)c2ccc(Cl)cc2)CCN(c2ncnc3[nH]ccc23)CC1 [Capivasertib] + CC(C)n1c(=O)n(C)c2cnc3cc(F)c(-c4ccc(OCCCN5CCCCC5)nc4)cc3c21 [AZD1390] (first compound max 10 µM, 7x7, partner max 0.3 µM) |  | 0.392 | 0.323 | 0.223 | 0.34 | 0.599 | 0.459 | 0.407 | 0.512 | 0.439 | 0.582 | 
